Patent US7919508B2, “3-piperidinylisochroman-5-ols as dopamine agonists” (Aventis Pharmaceuticals Inc., priority 2004, dated 2011)
Where a name gives a salt, the structure may show the parent alone.

Experiments:
[1] = target: T1, human dopamine D1 receptor (Homo sapiens, UniProt P21728); experiment: [3H]-SCH-23390 binding to cloned human dopamine D1 receptors (CHO cell membranes); conditions: competitive binding, [3H]-SCH-23390, cloned human D1 in CHO membranes; read-out: D1 affinity Ki
T1 construct: A 1.4 Kb Hind III to Xho I fragment was subcloned into the vector pMMLV; expressed in transfected cells; host or cells: CHO cells, clone CHO-D1M#9 (plasmid pHD1MMLV), membranes
T1 sequence (P21728 whole entry, the tested form may be a part): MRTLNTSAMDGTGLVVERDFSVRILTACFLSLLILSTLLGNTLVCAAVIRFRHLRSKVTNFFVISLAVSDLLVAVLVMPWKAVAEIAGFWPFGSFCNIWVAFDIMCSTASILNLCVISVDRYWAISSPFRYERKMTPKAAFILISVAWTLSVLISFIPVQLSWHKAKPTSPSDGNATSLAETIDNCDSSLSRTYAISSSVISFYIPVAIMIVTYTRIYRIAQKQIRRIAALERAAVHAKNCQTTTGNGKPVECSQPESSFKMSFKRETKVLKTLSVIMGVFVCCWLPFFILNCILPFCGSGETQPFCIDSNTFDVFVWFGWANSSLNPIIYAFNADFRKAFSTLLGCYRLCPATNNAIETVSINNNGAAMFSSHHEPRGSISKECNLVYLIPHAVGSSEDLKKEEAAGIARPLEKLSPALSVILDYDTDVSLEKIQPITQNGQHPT

D1 receptor = target: T2, D1 receptor (Homo sapiens, UniProt P21728); experiment: D1 Activation Adenylyl Cyclase Assay (cAMP FlashPlate, D1 transfected CHO cell line); format: cell-based; conditions: agonist activity at the D1 receptor, adenylate cyclase assay, D1 transfected CHO cell line; read-out: D1 EC50
T2 construct: expressed in transfected cells; host or cells: D1 transfected CHO cell line
T2 sequence (P21728 whole entry): as the sequence (P21728 whole entry, the tested form may be a part) above
Procedure: D1 Activation Adenylyl Cyclase Assay
Purpose: To measure D1-agonist activity compounds using an Adenylyl Cyclase Activation Flash Plate Assay from NEN.
Buffers: Activation and Detection buffers are provided from NEN: Catalog # SMP004A.
Maintenance of D1 transfected CHO cell line: • 1. Cells are grown in a 150 cc flask in an incubator at 37° C. with 5% CO2 for 2-3 days (4 maximum) until confluent. • 2. Aspirate off old media (Cells adhere to the plastic flask), wash 2× with sterile PBS. • 3. Add ˜5 mL of Trypsin EDTA (enough to cover bottom of the flask) for 5 min. at RT. • 4. Stop digestion with 15 mL of Media (Ham's F12 plus 10% FBS, 1% P/S, 400 μg/mL G418). • Bang flask on counter to release them from the flask. • 5. Add 2 mL of this to 30 mL of Media in a fresh flask. Return to incubator. Preparation of Cells for Assay: • 1. Loosen the cells with 5 mL Vercine (EDTA)/flask for 10 minutes in incubator. • 2. Add 20 mL of Serum-free media/flask. Transfer to 50-mL Falcon tube. • 3. Spin down cells at 1000 RPM for 5 minutes at 4° C. • 4. Aspirate off old media and resuspend in 5 mL of Serum-free media/plate to be done. • 5. Dilute 10 μL 1/10 in 90 μL Trypan Blue solution and count with a hemocytometer. • Count (live cells only) all four areas and average them. • Count X 10^5 equals cells/mL (including accounting for dilution in Trypan). • 6. Dilute to 50,000 cells/50 μL (1,000,000 cells/mL) in Serum-free media. • 7. Put 50 μL/well in Rows 3-12 of a cAMP FlashPlate. • 8. Put in incubator at 37° C. for 2-4 hours, to allow cells to recover and attach. Adenylyl Cyclase Activation Assay: • 1. Prepare the cAMP standards: • Add 130 μL/well of stimulation buffer to each row of a separate 96-well “standard” plate, 2 columns/plate. • Dilute stock cAMP standard 1/5 with stimulation buffer (final concentration is 1000 pmol/mL). Add 130 μL of this to row A. • Make 1/2 serial dilutions by adding 130 μL from each well to the next (A-G), mixing between each. • Final concentrations are: • A: 500, B: 250, C: 125, D: 62.5, E: 31.25, F: 15.6, G: 7.8, H: 0 pmol/mL. • Place 100 μL from each row from 2 columns of the standard plate into columns 1 and 2 of each “reaction” plate. • 2. Prepare the negative and positive control in the “reaction” plate: • Column 3, rows A-D, add 100 μL stimulation buffer (negative control). • Column 3, rows E-H, add 90 μL of stimulation buffer plus 10 μL of 200 μM APO (positive control, […]). (10 μL 10 mM APO, plus 490 μL stim. buffer=1/50 dilution.) • 3. Prepare the agonist compound dilutions in the “compound” plate: • Add 80 μL of stimulation buffer to row A (One column for each compound), and 90 μL of stimulation buffer to rows B—H. • Add 20 μL of 10 mM of each compound to appropriate row A. • Make 1/10 serial dilutions by adding 10 μL from each well to the next (A-H), mixing between each. • 4. […]. Prepare Detection/Stop buffer by adding 90 μL/plate of cAMP-^125I to 10 mL/plate plus 6 mL (for dead volume) of detection buffer. Steps 6-8 performed with the Multi-Mek. • 6. Add 50 μL to each well of the FlashPlate with CHO cells set up earlier. • 7. Incubate at RT for 8 minutes. • 8. Stop reaction by adding 100 μL of detection/stop buffer to each well. • 9. Cover with plastic film and incubate at RT for 16-24 hours (don't wait more than 24 hours). • 10. Count in a Packard Top-Count. Calculations: • 1. Raw signals generated by cAMP standard wells, without cells, are averaged at each cAMP concentration and converted to % B/Bo by dividing the raw signal at each cAMP concentration by the raw signal with no cAMP added. • 2. These values are used to generate a standard curve by plotting cAMP concentration versus % B/Bo. • 3. Raw data for each compound at each concentration is also converted to % B/B. by the same method. • 4. These values are then converted to pmol cAMP/mL using the standard curve. • 5. These cAMP values are then averaged across the three replicates for each compound concentration. • 6. […]

[2] = target: human dopamine D2Long (D2L) receptors (Homo sapiens, UniProt P14416)
Sequence of human dopamine D2Long (D2L) receptors (P14416 whole entry): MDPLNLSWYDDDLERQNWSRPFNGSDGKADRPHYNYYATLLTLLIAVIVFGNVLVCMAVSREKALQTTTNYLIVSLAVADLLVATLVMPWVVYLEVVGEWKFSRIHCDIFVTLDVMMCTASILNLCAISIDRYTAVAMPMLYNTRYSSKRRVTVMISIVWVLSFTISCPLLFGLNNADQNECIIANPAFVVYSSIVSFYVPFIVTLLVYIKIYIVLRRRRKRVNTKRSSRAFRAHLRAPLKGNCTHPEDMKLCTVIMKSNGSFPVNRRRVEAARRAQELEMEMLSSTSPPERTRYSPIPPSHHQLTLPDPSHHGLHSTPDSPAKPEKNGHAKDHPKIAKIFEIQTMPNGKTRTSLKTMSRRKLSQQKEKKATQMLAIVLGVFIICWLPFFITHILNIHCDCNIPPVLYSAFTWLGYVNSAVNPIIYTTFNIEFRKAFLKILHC

SMILES	Ki [1] [nM]	EC50 (D1 receptor) [nM]	Ki [2] [nM]
Cc1ccc2c(c1O)C[C@@H](C1CCN(Cc3ccccc3F)CC1)O[C@H]2CN [Example 36, (1R,3S)-1-Aminomethyl-3-[1-(2-fluoro-benzyl)-piperidin-4-yl]-6-methyl-isochroman-5-ol dihydrobromide]	42.8	62	749
Cc1ccc2c(c1O)C[C@@H](C1CCN(Cc3cccc(Cl)c3)CC1)O[C@H]2CN [Example 37, (1R,3S)-1-Aminomethyl-3-[1-(3-chloro-benzyl)-piperidin-4-yl]-6-methyl-isochroman-5-ol dihydrobromide]	17.9	110	356
Cc1ccc2c(c1O)C[C@@H](C1CCN(CC3CC3)CC1)O[C@H]2CN [Example 38, (1R,3S)-1-Aminomethyl-3-(1-cyclopropylmethyl-piperidin-4-yl)-6-methyl-isochroman-5-ol dihydrochloride]	53	10	≥ 10000
Cc1ccc2c(c1O)C[C@@H](C1CCN(Cc3cccc4ccccc34)CC1)O[C@H]2CN [Example 39, (1R,3S)-1-Aminomethyl-6-methyl-3-(1-naphthalen-1-ylmethyl-piperidin-4-yl)-isochroman-5-ol dihydrochloride]	113	750	≥ 10000
Cc1ccc2c(c1O)C[C@@H](C1CCN(CCC(C)C)CC1)O[C@H]2CN [Example 41, (1R,3S)-1-Aminomethyl-6-methyl-3-[1-(3-methyl-butyl)-piperidin-4-yl]-isochroman-5-ol dihydrochloride]	114	250	≥ 10000
Cc1ccc2c(c1O)C[C@@H](C1CCN(CCO)CC1)O[C@H]2CN [Example 43, (1R,3S)-1-Aminomethyl-3-[1-(2-hydroxy-ethyl)-piperidin-4-yl]-6-methyl-isochroman-5-ol dihydrochloride]	86.1	110	≥ 10000
Cc1ccc2c(c1O)C[C@@H](C1CCN(Cc3ccc4ccccc4c3)CC1)O[C@H]2CN [Example 45, (1R,3S)-1-Aminomethyl-6-methyl-3-(1-naphthalen-2-ylmethyl-piperidin-4-yl)-isochroman-5-ol dihydrochloride]	96.4	110	≥ 10000
Cc1ccc2c(c1O)C[C@@H](C1CCN(Cc3ccc(Oc4ccccc4)cc3)CC1)O[C@H]2CN [Example 46, (1R,3S)-1-Aminomethyl-6-methyl-3-[1-(4-phenoxy-benzyl)-piperidin-4-yl]-isochroman-5-ol dihydrochloride]	49	100	215
Cc1ccc2c(c1O)C[C@@H](C1CCN(Cc3cccs3)CC1)O[C@H]2CN [Example 47, (1R,3S)-1-Aminomethyl-6-methyl-3-(1-thiophen-2-ylmethyl-piperidin-4-yl)-isochroman-5-ol dihydrochloride]	66.4	170	≥ 10000
Cc1ccc2c(c1O)C[C@@H](C1CCN(Cc3ccc(C(C)C)cc3)CC1)O[C@H]2CN [Example 48, (1R 3S)-1-Aminomethyl-3-[1-(4-isopropyl-benzyl)-piperidin-4-yl]-6-methyl-isochroman-5-ol dihydrochloride]	37.4	26	≥ 10000
Cc1ccc2c(c1O)C[C@@H](C1CCN(Cc3ccc(-c4ccccc4)cc3)CC1)O[C@H]2CN [Example 49, (1R,3S)-1-Aminomethyl-3-(1-biphenyl-4-ylmethyl-piperidin-4-yl)-6-methyl-isochroman-5-ol dihydrochloride]	48.2	78	310
Cc1ccc2c(c1O)C[C@@H](C1CCN(Cc3cccnc3)CC1)O[C@H]2CN [Example 53, (1R,3S)-1-Aminomethyl-6-methyl-3-(1-pyridin-3-ylmethyl-piperidin-4-yl)-isochroman-5-ol dihydrochloride]	60.7	15	≥ 10000
Cc1ccc2c(c1O)C[C@@H](C1CCN(Cc3ccc4ccccc4n3)CC1)O[C@H]2CN [Example 55, (1R,3S)-1-Aminomethyl-6-methyl-3-(1-quinolin-2-ylmethyl-piperidin-4-yl)-isochroman-5-ol dihydrochloride]	53.6	16	449
Cc1ccc2c(c1O)C[C@@H](C1CCN(Cc3cnc4ccccc4c3)CC1)O[C@H]2CN [Example 56, (1R,3S)-1-Aminomethyl-6-methyl-3-(1-quinolin-3-ylmethyl-piperidin-4-yl)-isochroman-5-ol dihydrochloride]	30.5	12	≥ 10000
Cc1ccc2c(c1O)C[C@@H](C1CCN(Cc3ccnc4ccccc34)CC1)O[C@H]2CN [Example 57, (1R,3S)-1-Aminomethyl-6-methyl-3-(1-quinolin-4-ylmethyl-piperidin-4-yl)-isochroman-5-ol dihydrochloride]	59.6	12	≥ 10000
Cc1ccc2c(c1O)C[C@@H](C1CCN(Cc3ccc(Cl)cc3Cl)CC1)O[C@H]2CN [Example 59, (1R,3S)-1-Aminomethyl-3-[1-(2,4-dichloro-benzyl)-piperidin-4-yl]-6-methyl-isochroman-5-ol dihydrochloride]	46.2	12	443
Cc1ccc2c(c1O)C[C@@H](C1CCN(Cc3ccc(Cl)c(Cl)c3)CC1)O[C@H]2CN [Example 60, (1R,3S)-1-Aminomethyl-3-[1-(3,4-dichloro-benzyl)-piperidin-4-yl]-6-methyl-isochroman-5-ol dihydrochloride]	11.8	160	364
Cc1cccc(CN2CCC([C@@H]3Cc4c(ccc(C)c4O)[C@H](CN)O3)CC2)c1 [Example 65, (1R,3S)-1-Aminomethyl-6-methyl-3-[1-(3-methyl-benzyl)-piperidin-4-yl]-isochroman-5-ol dihydrochloride]	34	11	288
Cc1ccc2c(c1O)C[C@@H](C1CCN(Cc3cccc(C(F)(F)F)c3)CC1)O[C@H]2CN [Example 73, (1R,3S)-1-Aminomethyl-6-methyl-3-[1-(3-trifluoromethyl-benzyl)-piperidin-4-yl]-isochroman-5-ol dihydrochloride]	63.5	15	431
Cc1ccc2c(c1O)C[C@@H](C1CCN(Cc3ccc(C(F)(F)F)cc3)CC1)O[C@H]2CN [Example 74, (1R,3S)-1-Aminomethyl-6-methyl-3-[1-(4-trifluoromethyl-benzyl)-piperidin-4-yl]-isochroman-5-ol dihydrochloride]	57	6	655
